Measurements taken from patent US12600796B2, “Constructs for chimeric antigen receptors” (Carisma Therapeutics Inc., priority 2020, dated 2026).

B1: CD40L: Recombinant CD40 ligand (Peprotech), a CD40 agonist (protein, UniProt P29965 113-261, looked up)
CD40 ligand, soluble form: MQKGDQNPQIAAHVISEASSKTTSVLQWAEKGYYTMSNNLVTLENGKQLTVKRQGLYYIYAQVTFCSNREASSQAPFIASLCLKSPGRFERILLRAANTHSSAKPCGQQSIHLGGVFELQPGASVFVNVTDPSQVSHGTGFTSFGLLKL

What was measured:
Human macrophages [1] = assay: mCherry mRNA expression in transfected macrophages (Incucyte); format: cell-based; conditions: different doses, one day; FIG. 129
Method: Human macrophages were transfected with mCherry mRNA comprising m6AGCap1 and PsU or N1mPsU modifications and were then cultured for one day with different doses of IFN-γ. mCherry expression was monitored on an Incucyte® live imaging microscope.
In order to determine whether an RNaseL inhibitor could rescue IFN-γ-induced instability of transfected mRNA, human macrophages were treated with 1 μM sunitinib (an RNaseL inhibitor) two hours prior to the transfection of mCherry mRNA comprising m6AGCap1 and PsU modifications. Transfected cells were then cultured for one day with different dosages of IFN-γ. mCherry expression was monitored on an Incucyte® live imaging microscope.
The effect of another RNaseL inhibitor (RLI or ABCE1) was also tested to further validate the concept. Human macrophages were co-transfected with mRNA encoding mCherry comprising m6AGCap 1 and PsU modifications and with mRNA encoding ABCE1.

Human macrophages [2] = assay: Viability, CAR expression and M1/M2 markers of HER2 CAR mRNA-electroporated macrophages treated with interferons; format: cell-based; conditions: for M1 phenotype (based on CD86 expression): FIG. 121E; for M2 markers (based on CD163 expression): FIG. 121F
Method: Human macrophages were electroporated with HER2 CAR mRNA comprising m6AGCap1 and PsU modifications. Cells were cultured with cytokines that induce an M1 phenotype such as IFN-alpha, IFN-beta, IFN-gamma, IFN-gamma plus lipopolysaccharide (LPS), TNF-alpha, IL-6 or a STING ligand (STING-L) for up to 48 hours and then cytokines were washed off and fresh media was added. CAR expression and M1 marker expression were measured on days 2 and 7 after transfection. Fluorescent labeled HER2+ breast cancer cells (CRL2351) were co-cultured with HER2 CAR macrophages two days after the macrophages were transfected. Cancer cell growth was monitored via its fluorescence on an Incucyte® live imaging microscope every four hours. The Effector (CAR macrophage) to Target (cancer cell) ratio was 5:1.
Five different mRNA modifications were also tested to determine if interferon treatment differentially affected macrophages transfected with mRNA comprising different modifications. Human macrophages were electroporated with HER2 CAR mRNA comprising different mRNA modifications. CAR expression and M1 markers were detected by Flow Cytometry (Attune) on day four after electroporation. Day 4 CAR macrophage cells were then co-cultured with a Nuc-Light labeled, HER2+ breast cancer cell line (CRL2351) at an Effector (CAR macrophage) to Target (cancer cell) ratio of 5:1. Cancer cell growth was monitored via its fluorescence on an Incucyte® live imaging microscope every four hours.
Human macrophages were electroporated with 300 nM CAR mRNA comprising m6AGCap1 and PsU modifications. Cells were cultured with 20 ng/mL IFNs for 24 hours and then the cells were washed to remove cytokines. CAR expression was detected by Flow Cytometry (Attune) on day 2 after transfection. Cells were then co-cultured with a Nuc-Light labeled, HER2+ breast cancer cell line (CRL2351) at the Effector to Target ratio of 3:1. Cancer cell growth was monitored via its fluorescence on an Incucyte® live imaging microscope. CAR expression and M1 markers in macrophages were detected by Flow Cytometry (Attune) on day 7 after transfection.

[3] = test system: HER2+ breast cancer cells (CRL2351); assay: Cytokine secretion of interferon-treated HER2 CAR macrophages co-cultured with cancer cells (MSD); format: cell-based, human; conditions: E:T 3:1, supernatant at 48 hours; FIG. 126
Method: Human macrophages were electroporated with 150 nM HER2 CAR mRNA comprising m6AGCap1 and PsU modifications. HER2+ breast cancer cells (CRL2351) were co-cultured with CAR macrophages after the macrophages were transfected with the CAR mRNA at an Effector (CAR macrophage) to Target (cancer cell) ratio of 3:1. Supernatant was collected 48 hours after the cancer cells and macrophages were co-cultured and cytokine levels were measured using a Meso Scale Discovery (MSD) instrument.

[4] = test system: CRL-2351 cells expressing nuclear GFP; assay: Tumor killing by macrophages and Her2-Zeta CAR macrophages primed with plate-coated agonist proteins (Incucyte); format: cell-based, human; conditions: plate-coated protein, 3 h priming; FIGS. 5A, 6A, 7A
Method: (§1) To generate Her2-Zeta CAR expressing macrophages, primary human macrophages were suspended in EP buffer (MaxCyte) containing 300 nM mRNA (TriLink) at a concentration of 90×10^6 cells/mL. 100 μL of cell mixture was added to an electroporation cassette (OC100×2; MaxCyte) and electroporated using the Experimental T cell 1 setting. Cells were removed from the cassette, plated in 3 mL of TexMACS media (Miltenyi Biotech) containing 20% FBS (Gibco) on UpCell plates (Thermo Scientific), and incubated overnight at 37 C and 5% CO2.
(§2) Recombinant CD40 ligand (Peprotech), 4-1BB ligand (Enzo Life Sciences), and 4-1BB receptor (Peprotech) were resuspended in molecular grade water to a stock concentration of 100 μg/mL. Stock solution was then used to create working solutions in PBS ranging from 2-0.002 μg/mL. 100 uL of working solution was added to wells in a 96-well plate and left at room temperature for 4 h.
Plates were removed from the incubator and left at room temperature for 30 min. Cells were detached from plate, counted using the NC-200 automated cell counter (Chemomtech), and re-suspended in TexMACS media with 10% FBS. […] Cell lysis was detected using Incucyte® analysis (Essen Bioscience). Tumor cell death was calculated by integrated GFP intensity per well relative to time 0.

[5] = test system: primary human macrophages; assay: M1/M2 surface marker expression after priming with agonist proteins (flow cytometry); format: cell-based; conditions: mRNA CAR macrophages, 3 days on coated wells; FIGS. 5B, 6B, 7B
Method: as §1, §2
For detection of cell surface proteins, macrophages were plated onto wells coated with agonist molecules in a final volume of 200 uL TexMACS media+10% FBS+10 ng/mL GM-CSF and incubated for 3 days at 37 C and 5% CO2. Cells were incubated in 300 μL Accutase (Sigma) for 30 min and transferred to 96-well round bottom plate for staining. Cells were incubated in FACS buffer containing 20 μg/mL Her2-His for 20 min at RT, followed by incubation in Human TruStain FcX for 10 min at RT. […]

Row | Molecule | mCherry mRNA expression (Human macrophages [1]) | M1 phenotype (based on CD86 expression) (Human macrophages [2]) | M2 markers (based on CD163 expression) (Human macrophages [2]) | secretion of IL-6, IL-8 and TNFα [3] | tumor killing ability of macrophages and CAR macrophages [4] | M1 phenotype (M1 and M2 markers) [5]
1 | IFN-γ: interferon cytokine that induces an M1 phenotype | reduced mCherry mRNA expression | induction of an M1 phenotype | reduction of M2 markers | increased secretion of the cytokines IL-6, IL-8 and TNFα |  | 
2 | IFN-α |  | induction of an M1 phenotype | reduction of M2 markers | increased secretion of the cytokines IL-6, IL-8 and TNFα |  | 
3 | B1 |  |  |  |  | significantly improved the tumor killing ability | induced an M1 phenotype
